The numbers were not newly measured in patent publication US6676926B2, “Radiopharmaceuticals for diagnosing Alzheimer's disease” (Schering Aktiengesellschaft, priority 2000, dated 2004), which cites them from elsewhere.

Series [1] has as its system synthetic-amyloid. To be noted: in vitro.
The conditions of series [2]: normal mice.

`O=C(O)c1cc(/N=N/c2ccc(-c3ccc(/N=N/c4ccc(O)c(C(=O)O)c4)cc3)cc2)ccc1O` [Chrysamine G]: in series [1], the “binding to synthetic amyloid” value is listed as “binds synthetic-amyloid well”. The blood-brain barrier passage entry in series [2] is “crosses the blood-brain barrier”.
